Measured values as given in ChEMBL document CHEMBL1201862, “PubChem BioAssay data set” (2004).
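Interpolation was linear, between the two tested concentrations surrounding the appropriate level; five concentrations were tested over 48 hours in 96-well plates. GI50 is the concentration that inhibits growth by half.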 The source made the active and inactive calls. No stated cut-off is given here; in the data, active = GI50 up to about 1.1 µM and inactive = higher.

How the values were obtained:
Test in all cases: NCI tumour cell line growth inhibition, 48 h
[1] = test system: CCRF-CEM
[2] = test system: SK-MEL-2
[3] = test system: SK-MEL-5
[4] = test system: RXF 393
[5] = test system: HL-60
[6] = test system: HCC 2998
[7] = test system: SW-620
[8] = test system: IGROV-1
[9] = test system: HT-29
[10] = test system: 786-0
[11] = test system: SF-268
[12] = test system: HOP-62
[13] = test system: Malme-3M
[14] = test system: UACC-257
[15] = test system: LOX IMVI
[16] = test system: MOLT-4
[17] = test system: MDA-N
[18] = test system: RPMI-8226
[19] = test system: A549
[20] = test system: UO-31
[21] = test system: K562
[22] = test system: ACHN
[23] = test system: BT-549
[24] = test system: OVCAR-3
[25] = test system: NCI-H460
[26] = test system: KM12
[27] = test system: SF-539
[28] = test system: OVCAR-5
[29] = test system: NCI/ADR-RES
[30] = test system: MDA-MB-435
[31] = test system: NCI-H23
[32] = test system: MDA-MB-231
[33] = test system: T47D
[34] = test system: A498
[35] = test system: DU-145
[36] = test system: CAKI-1
[37] = test system: SNB-19
[38] = test system: M14
[39] = test system: NCI-H522
[40] = test system: SK-MEL-28
[41] = test system: Hs-578T
[42] = test system: SK-OV-3
[43] = test system: MCF7
[44] = test system: UACC-62
[45] = test system: HCT-15
[46] = test system: TK-10
[47] = test system: NCI-H226
[48] = test system: PC-3
[49] = test system: OVCAR-8
[50] = test system: SN12C
[51] = test system: SF-295
[52] = test system: HCT-116
[53] = test system: U-251
[54] = test system: EKVX
[55] = test system: SR
[56] = test system: OVCAR-4
[57] = test system: COLO 205
[58] = test system: HOP-92
[59] = test system: SNB-75

Compound: O=[N+]([O-])c1ccc2c(c1)c(OCc1ccccc1)nn2Cc1ccccc1
- GI50 [1]: 40.1 µM (inactive)
- GI50 [2]: > 100 µM (inactive)
- GI50 [3]: 58.2 µM (inactive)
- GI50 [4]: 34.2 µM (inactive)
- GI50 [5]: > 100 µM (inactive)
- GI50 [6]: 58.9 µM (inactive)
- GI50 [7]: > 100 µM (inactive)
- GI50 [8]: > 100 µM (inactive)
- GI50 [9]: > 100 µM (inactive)
- GI50 [10]: 55 µM (inactive)
- GI50 [11]: > 100 µM (inactive)
- GI50 [12]: 36.3 µM (inactive)
- GI50 [13]: 78.5 µM (inactive)
- GI50 [14]: > 100 µM (inactive)
- GI50 [15]: > 100 µM (inactive)
- GI50 [16]: 57 µM (inactive)
- GI50 [17]: > 100 µM (inactive)
- GI50 [18]: > 100 µM (inactive)
- GI50 [19]: 64.1 µM (inactive)
- GI50 [20]: > 100 µM (inactive)
- GI50 [21]: > 100 µM (inactive)
- GI50 [22]: 43.8 µM (inactive)
- GI50 [23]: 71.8 µM (inactive)
- GI50 [24]: > 100 µM (inactive)
- GI50 [25]: > 100 µM (inactive)
- GI50 [26]: > 100 µM (inactive)
- GI50 [27]: 34.5 µM (inactive)
- GI50 [28]: > 100 µM (inactive)
- GI50 [29]: > 100 µM (inactive)
- GI50 [30]: > 100 µM (inactive)
- GI50 [31]: > 100 µM (inactive)
- GI50 [32]: > 100 µM (inactive)
- GI50 [33]: > 100 µM (inactive)
- GI50 [34]: 33 µM (inactive)
- GI50 [35]: > 100 µM (inactive)
- GI50 [36]: > 100 µM (inactive)
- GI50 [37]: > 100 µM (inactive)
- GI50 [38]: > 100 µM (inactive)
- GI50 [39]: 23 µM (inactive)
- GI50 [40]: 72.6 µM (inactive)
- GI50 [41]: 52.8 µM (inactive)
- GI50 [42]: > 100 µM (inactive)
- GI50 [43]: > 100 µM (inactive)
- GI50 [44]: 80.4 µM (inactive)
- GI50 [45]: 53 µM
- GI50 [46]: 62.1 µM (inactive)
- GI50 [47]: > 100 µM (inactive)
- GI50 [48]: 63.1 µM (inactive)
- GI50 [49]: > 100 µM (inactive)
- GI50 [50]: > 100 µM (inactive)
- GI50 [51]: 51.2 µM (inactive)

Compound: O=C1CSCC(=O)Nc2ccccc2N1
- GI50 [1]: > 100 µM (inactive)
- GI50 [2]: > 100 µM (inactive)
- GI50 [3]: > 100 µM (inactive)
- GI50 [4]: > 100 µM (inactive)
- GI50 [5]: > 100 µM (inactive)
- GI50 [7]: > 100 µM (inactive)
- GI50 [8]: > 100 µM (inactive)
- GI50 [9]: > 100 µM (inactive)
- GI50 [52]: > 100 µM (inactive)
- GI50 [10]: > 100 µM (inactive)
- GI50 [11]: > 100 µM (inactive)
- GI50 [12]: > 100 µM (inactive)
- GI50 [13]: > 100 µM (inactive)
- GI50 [53]: > 100 µM (inactive)
- GI50 [14]: > 100 µM (inactive)
- GI50 [54]: > 100 µM (inactive)
- GI50 [15]: > 100 µM (inactive)
- GI50 [16]: > 100 µM (inactive)
- GI50 [17]: > 100 µM (inactive)
- GI50 [18]: > 100 µM (inactive)
- GI50 [19]: > 100 µM (inactive)
- GI50 [55]: > 100 µM (inactive)
- GI50 [20]: > 100 µM (inactive)
- GI50 [21]: > 100 µM (inactive)
- GI50 [22]: > 100 µM (inactive)
- GI50 [23]: > 100 µM (inactive)
- GI50 [24]: > 100 µM (inactive)
- GI50 [25]: > 100 µM (inactive)
- GI50 [26]: > 100 µM (inactive)
- GI50 [27]: > 100 µM (inactive)
- GI50 [28]: > 100 µM (inactive)
- GI50 [29]: > 100 µM (inactive)
- GI50 [30]: > 100 µM (inactive)
- GI50 [31]: > 100 µM (inactive)
- GI50 [32]: > 100 µM (inactive)
- GI50 [33]: > 100 µM (inactive)
- GI50 [34]: > 100 µM (inactive)
- GI50 [35]: > 100 µM (inactive)
- GI50 [36]: > 100 µM (inactive)
- GI50 [37]: > 100 µM (inactive)
- GI50 [38]: > 100 µM (inactive)
- GI50 [39]: > 100 µM (inactive)
- GI50 [40]: > 100 µM (inactive)
- GI50 [41]: > 100 µM (inactive)
- GI50 [56]: > 100 µM (inactive)
- GI50 [42]: > 100 µM (inactive)
- GI50 [44]: > 100 µM (inactive)
- GI50 [45]: > 100 µM
- GI50 [46]: > 100 µM (inactive)
- GI50 [47]: > 100 µM (inactive)
- GI50 [48]: > 100 µM (inactive)
- GI50 [57]: > 100 µM (inactive)
- GI50 [49]: > 100 µM (inactive)
- GI50 [58]: > 100 µM (inactive)
- GI50 [50]: > 100 µM (inactive)
- GI50 [51]: > 100 µM (inactive)

Compound: O/N=N\c1nc(-c2ccccn2)nc2ccccc12
- GI50 [1]: 0.441 µM (active)
- GI50 [2]: 4.68 µM (inactive)
- GI50 [3]: 2.77 µM (inactive)
- GI50 [5]: 0.984 µM (active)
- GI50 [6]: 9.71 µM (inactive)
- GI50 [7]: 5.35 µM (inactive)
- GI50 [8]: 17 µM (inactive)
- GI50 [9]: 0.611 µM (active)
- GI50 [52]: 3.33 µM (inactive)
- GI50 [10]: 3.68 µM (inactive)
- GI50 [11]: 11.7 µM (inactive)
- GI50 [12]: 1.98 µM (inactive)
- GI50 [13]: 1.24 µM (inactive)
- GI50 [53]: 17.5 µM (inactive)
- GI50 [14]: 7.69 µM (inactive)
- GI50 [54]: 18.2 µM (inactive)
- GI50 [59]: 20.3 µM (inactive)
- GI50 [16]: 0.373 µM (active)
- GI50 [17]: 19.6 µM (inactive)
- GI50 [19]: 45.3 µM (inactive)
- GI50 [55]: 2.38 µM (inactive)
- GI50 [20]: 18.7 µM (inactive)
- GI50 [21]: 2.23 µM (inactive)
- GI50 [22]: 2.14 µM (inactive)
- GI50 [23]: 20.8 µM (inactive)
- GI50 [24]: 0.743 µM (active)
- GI50 [25]: 2.49 µM (inactive)
- GI50 [26]: 20.6 µM (inactive)
- GI50 [27]: 17.1 µM (inactive)
- GI50 [28]: 27.1 µM (inactive)
- GI50 [29]: 7.78 µM (inactive)
- GI50 [31]: 35.2 µM (inactive)
- GI50 [32]: 13.3 µM (inactive)
- GI50 [33]: 2.83 µM (inactive)
- GI50 [34]: 32.4 µM (inactive)
- GI50 [35]: 15 µM (inactive)
- GI50 [36]: 2.12 µM (inactive)
- GI50 [37]: 42.3 µM (inactive)
- GI50 [38]: 4.09 µM (inactive)
- GI50 [39]: 1.89 µM (inactive)
- GI50 [40]: 16 µM (inactive)
- GI50 [41]: > 100 µM (inactive)
- GI50 [56]: 8.05 µM (inactive)
- GI50 [42]: 55.5 µM (inactive)
- GI50 [43]: 4.76 µM (inactive)
- GI50 [44]: 7.18 µM (inactive)
- GI50 [45]: 1.53 µM
- GI50 [46]: 17.4 µM (inactive)
- GI50 [47]: 12.7 µM (inactive)
- GI50 [48]: 11.7 µM (inactive)
- GI50 [57]: 6.15 µM (inactive)
- GI50 [49]: 12.4 µM (inactive)
- GI50 [50]: 23 µM (inactive)
- GI50 [51]: 22 µM (inactive)

Compound: COC(=O)[C@@]12OC[C@]34[C@H]([C@@H](O)[C@@H]1O)[C@@]1(C)CC(=O)C(OC(C)=O)=C(C)[C@@H]1C[C@H]3OC(=O)[C@H](OC(=O)C=C(C)C)[C@@H]24
- GI50 [2]: 0.656 µM (active)
- GI50 [4]: 0.75 µM (active)
- GI50 [7]: 0.914 µM (active)
- GI50 [9]: 0.543 µM (active)
- GI50 [10]: 0.895 µM (active)
- GI50 [11]: 0.853 µM (active)
- GI50 [12]: 0.607 µM (active)
- GI50 [14]: 0.557 µM (active)
- GI50 [54]: 1.44 µM (inactive)
- GI50 [59]: 1.44 µM (inactive)
- GI50 [17]: 0.714 µM (active)
- GI50 [19]: 0.838 µM (active)
- GI50 [20]: 2.64 µM (inactive)
- GI50 [22]: 1.82 µM (inactive)
- GI50 [23]: 1.52 µM (inactive)
- GI50 [26]: 0.596 µM (active)
- GI50 [28]: 1.75 µM (inactive)
- GI50 [29]: 12.8 µM (inactive)
- GI50 [30]: 0.738 µM (active)
- GI50 [31]: 0.574 µM (active)
- GI50 [32]: 1.81 µM (inactive)
- GI50 [33]: 0.977 µM (active)
- GI50 [34]: 0.43 µM (active)
- GI50 [35]: 1.34 µM (inactive)
- GI50 [36]: 2.7 µM (inactive)
- GI50 [37]: 0.627 µM (active)
- GI50 [38]: 0.755 µM (active)
- GI50 [41]: 0.857 µM (active)
- GI50 [56]: 0.752 µM (active)
- GI50 [44]: 0.721 µM (active)
- GI50 [45]: 1.77 µM
- GI50 [46]: 1 µM (active)
- GI50 [47]: 0.746 µM (active)
- GI50 [48]: 0.948 µM (active)
- GI50 [57]: 0.764 µM (active)
- GI50 [49]: 0.743 µM (active)
- GI50 [58]: 0.813 µM (active)
- GI50 [50]: 1.17 µM (inactive)
- GI50 [51]: 0.82 µM (active)
